Test results from PubChem BioAssay AID256 (DTP/NCI, 2004).
“And” between values parts separate entries of the source, which are not always exact repeats. Identical values can stand only once. Toxic doses and inconclusive results are not listed. How the source made its calls: active means survival T/C of 150% or more; inactive means T/C below 125% in these data.

Test system: CD2F1 mice, L1210 leukemia ip, survival T/C
Assay: NCI In Vivo Anticancer Drug Screen. Data for tumor model L1210 Leukemia (intraperitoneal) in CD2F1 (CDF1) mice
Settings: endpoint: mean survival time, higher = longer survival
Procedure, shortened: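 Mice carrying a transplanted tumor received test compound or vehicle alone. The value is the measurement in the treated group divided by that in the vehicle-treated control group.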

[1] = dose: 100.0 mg/kg/injection, schedule: Q04DX003 (ip), vehicle: saline with Tween-80
[2] = dose: 200.0 mg/kg/injection, schedule: Q04DX003 (ip), vehicle: saline with Tween-80
[3] = dose: 400.0 mg/kg/injection, schedule: Q04DX003 (ip), vehicle: saline with Tween-80
[4] = dose: 100.0 mg/kg/injection, schedule: Q04DX002 (ip), vehicle: saline with Tween-80
[5] = dose: 200.0 mg/kg/injection, schedule: Q04DX002 (ip), vehicle: saline with Tween-80
[6] = dose: 400.0 mg/kg/injection, schedule: Q04DX002 (ip), vehicle: saline with Tween-80

Measured: T/C

COC1=CC2=C3[C@H](Cc4cc5c(c(c4)Oc4ccc(cc4)C[C@H]4c6cc7c(cc6CCN4C)OCC3(O7)C1=O)OCO5)N(C)CC2 (stereo partly drawn)
inactive: dose: 50.0 mg/kg/injection, schedule: Q04DX003 (ip), vehicle: saline with Tween-80 96 % of control | [1] 98 % of control | [2] 96 % of control

CCc1c(C)c(=O)n(C)c2ccccc12
inactive: [1] 98 % of control | [2] 101 % of control | [3] 102 % of control

O=c1[nH]ccn1C1CCCCC1
inactive: dose: 50.0 mg/kg/injection, schedule: Q01DX001 (ip), vehicle: other 100 % of control | dose: 100.0 mg/kg/injection, schedule: Q01DX001 (ip), vehicle: other 96 % of control and 97 % of control | dose: 200.0 mg/kg/injection, schedule: Q01DX001 (ip), vehicle: other 97 % of control and 100 % of control

O=C(O)/C(=C(/c1ccccc1)c1ccc(Cl)cc1)c1ccccc1
inactive: [1] 98 % of control | [2] 96 % of control | [3] 98 % of control

O=C(Nc1ccc(Cl)c(Cl)c1)Sc1ccc(Cl)cc1
inactive: [1] 105 % of control

COc1ccc2c(c1)CCC1C2=CC2=NNC(=O)C2C1c1ccccc1 (stereo not drawn)
inactive: [4] 92 % of control | [5] 92 % of control | [6] 88 % of control

Cn1cc[n+](C)c1C(c1ccccc1)N1CCCCC1 (stereo not drawn)
inactive: dose: 5.0 mg/kg/injection, schedule: Q01DX001 (ip), vehicle: saline with Tween-80 106 % of control | dose: 5.0 mg/kg/injection, schedule: Q01DX009 (ip), vehicle: saline with Tween-80 94 % of control | dose: 10.0 mg/kg/injection, schedule: Q01DX001 (ip), vehicle: saline with Tween-80 96 % of control | dose: 10.0 mg/kg/injection, schedule: Q01DX009 (ip), vehicle: saline with Tween-80 100 % of control | dose: 20.0 mg/kg/injection, schedule: Q01DX001 (ip), vehicle: saline with Tween-80 102 % of control | dose: 20.0 mg/kg/injection, schedule: Q01DX009 (ip), vehicle: saline with Tween-80 98 % of control

CC(CN=Cc1ccccc1[NH-])N=Cc1ccccc1[NH-].[Ni+2] (stereo not drawn)
inactive: dose: 6.25 mg/kg/injection, schedule: Q04DX002 (ip), vehicle: saline with Tween-80 94 % of control | dose: 12.5 mg/kg/injection, schedule: Q04DX002 (ip), vehicle: saline with Tween-80 94 % of control | dose: 25.0 mg/kg/injection, schedule: Q04DX002 (ip), vehicle: saline with Tween-80 97 % of control | dose: 50.0 mg/kg/injection, schedule: Q04DX002 (ip), vehicle: saline with Tween-80 94 % of control and 109 % of control

CCc1ccccc1NC(=O)/C=C/c1ccccc1
inactive: [4] 86 % of control | [5] 96 % of control | [6] 93 % of control

CC1CC(O)C(NC(=O)NCCCl)C(O)C1 (stereo not drawn)
inactive: dose: 100.0 mg/kg/injection, schedule: Q01DX001 (ip), vehicle: saline with Tween-80 102 % of control | dose: 200.0 mg/kg/injection, schedule: Q01DX001 (ip), vehicle: saline with Tween-80 102 % of control | dose: 400.0 mg/kg/injection, schedule: Q01DX001 (ip), vehicle: saline with Tween-80 110 % of control

O=C(CCc1ccc(O)cc1)c1c(O)cc(O)cc1O
inactive: dose: 50.0 mg/kg/injection, schedule: Q01DX009 (ip), vehicle: saline + alcohol 110 % of control | dose: 100.0 mg/kg/injection, schedule: Q01DX009 (ip), vehicle: saline + alcohol 96 % of control | dose: 200.0 mg/kg/injection, schedule: Q01DX009 (ip), vehicle: saline + alcohol 89 % of control | dose: 400.0 mg/kg/injection, schedule: Q01DX009 (ip), vehicle: saline + alcohol 98 % of control

Cc1ccc2nc3c(nc2c1)-c1cccc2cccc-3c12
inactive: dose: 100.0 mg/kg/injection, schedule: Q01DX009 (ip), vehicle: saline with Tween-80 92 % of control | dose: 200.0 mg/kg/injection, schedule: Q01DX009 (ip), vehicle: saline with Tween-80 94 % of control | dose: 400.0 mg/kg/injection, schedule: Q01DX009 (ip), vehicle: saline with Tween-80 106 % of control

CC(C)(C)C1(C)CC1(Br)Br (stereo not drawn)
inactive: [1] 105 % of control | [2] 96 % of control

C=CC1C[N+]2(SS(=O)(=O)O)CCC1CC2C(O)c1ccnc2ccc(OC)cc12 (stereo not drawn)
inactive: dose: 75.0 mg/kg/injection, schedule: Q04DX003 (ip), vehicle: saline 100 % of control | dose: 150.0 mg/kg/injection, schedule: Q04DX003 (ip), vehicle: saline 95 % of control
